PubChem BioAssay (NCI)
Several values for one entry are separate records, joined by “and”; a condition that tells them apart may be missing. Equal values may be shown once.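 Interpolation was linear, between the two tested concentrations surrounding the appropriate level; five concentrations were tested over 48 hours in 96-well plates. Abbreviation: GI50, concentration required for 50% inhibition of growth. Definition used: TGI = concentration required for complete inhibition of growth.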

Legend:
Experiment in all cases: NCI tumour cell line growth inhibition, 48 h
SK-MEL-2 melanoma = system: SK-MEL-2 melanoma
PC-3 prostate = system: PC-3 prostate
NCI/ADR-RES ovarian = system: NCI/ADR-RES ovarian
SNB-19 CNS = system: SNB-19 CNS
LOX IMVI melanoma = system: LOX IMVI melanoma
COLO 205 colon = system: COLO 205 colon
ACHN renal = system: ACHN renal
786-0 renal = system: 786-0 renal
CCRF-CEM leukemia = system: CCRF-CEM leukemia
HL-60(TB) leukemia = system: HL-60(TB) leukemia

SMILES	TGI (SK-MEL-2 melanoma) [µM]	TGI (PC-3 prostate) [µM]	TGI (NCI/ADR-RES ovarian) [µM]	TGI (SNB-19 CNS)	TGI (LOX IMVI melanoma) [µM]	TGI (COLO 205 colon)	TGI (ACHN renal) [µM]	TGI (786-0 renal) [µM]	TGI (CCRF-CEM leukemia) [µM]	GI50 (SK-MEL-2 melanoma) [nM]	GI50 (SNB-19 CNS)	TGI (HL-60(TB) leukemia) [µM]	GI50 (PC-3 prostate) [nM]	GI50 (NCI/ADR-RES ovarian) [nM]	GI50 (LOX IMVI melanoma) [nM]	GI50 (COLO 205 colon) [nM]	GI50 (ACHN renal) [nM]	GI50 (786-0 renal) [nM]	GI50 (HL-60(TB) leukemia) [nM]	GI50 (CCRF-CEM leukemia) [nM]
N=Nc1c(OC(=O)Nc2ccccc2)[nH]c2ccccc12	44.6	34.4	> 100	63 µM	33.7	42.9 µM	36.6	32.6												
C/C=C(\C)c1cc(=O)c2c(C)cc3c(c2o1)C(=O)c1c(O)c(C2CC(C)(N(C)C)C(O)C(C)O2)cc(C2CC(N(C)C)C(O)C(C)O2)c1C3=O (stereo not given)	12.2	1.42		7.54 µM and 28.8 µM		4.09 µM and 20.1 µM	0.504	0.946	> 52	3670	404 nM and 2600 nM	6.82								
COc1ccc2c(c1)[C@]1(C[C@H]1c1ccc3c(/C=C/c4ccc(CN5C[C@@H](C)O[C@@H](C)C5)cc4)n[nH]c3c1)C(=O)N2	> 100	> 100	24.9	> 100 µM	10.4	15.1 µM	> 100	8.58		8280	9740 nM	13.7	2540	2710	1960	< 20.9	2860	2300	2690	
CN1CCN(CCCOc2cccc3nc(Nc4ccc(Cl)c(F)c4)ccc23)CC1	3.7	3.41	3.77	3.53 µM	3.17	3.34 µM	3.07	3.22		1880	1860 nM		1760	1800	1640	1700	1660	1670		
COc1cc2ccccc2c2cc([N+](=O)[O-])oc12	0.452	> 100	32.1	> 55.4 µM	3.93	2.36 µM		7.49				> 31.2								
CC(N=C(N)N)C(=O)O (stereo not given)	> 100	> 100	> 100	> 100 µM	> 100	> 100 µM	> 100	> 100	> 100											
COc1cc2c(c(OC)c1OC)C(=O)CC(c1cccc(NC(=O)c3ccc(Br)cc3)c1)O2 (stereo not given)	5.38	8.59	9.45	> 100 µM	> 100	> 100 µM	> 100	> 100		2160	4250 nM	4.14	2330	2410	2410	3170	3020	2970	1580	
O=C(CCN1CCOCC1)Nc1ccc(F)cc1F	> 100	> 100	> 100	> 100 µM	> 100	> 100 µM	> 100	> 100				> 100								
CC(C)(C)N/N=C(\Cc1occc(=O)c1O)C(=O)Nc1ccc([N+](=O)[O-])cc1[N+](=O)[O-]	> 100			> 100 µM	> 100	> 100 µM	> 100	> 100	> 100			> 100								
O=C1c2ccccc2C(=O)C2C1C1C(=O)c3ccccc3C(=O)C21 (stereo not given)	> 100			> 100 µM	> 100	> 100 µM	> 100	> 100	> 100			> 100								
O=C(/C=C1\C(=O)N(Cc2ccc([N+](=O)[O-])cc2)c2ccccc21)c1ccc(OCCN2CCCCC2)cc1	3.14	3.52	5.76	2.92 µM	2.78	3.27 µM	2.38	2.61	2.35	1660	1560 nM		1740	2040	1400	1640	1160	1290		323
O=[N+]([O-])c1cc([N+](=O)[O-])c(Cl)c(Cl)c1Cl	3.42		> 100	12 µM	1.86	2.03 µM	2.3	2.09	5.78	1760	3360 nM	4.69		2870	516	616	1040	804	2070	459
O=C(Cn1c(=O)c(-c2ccccc2)nc2ccccc21)c1ccc(Cl)cc1	> 100	> 100	> 100	> 100 µM	> 100	> 100 µM	> 100	86.6	> 100	> 100000	42200 nM		34600	48000	55000	> 100000	38600	27000		> 100000
NC(N)=NS(=O)(=O)c1ccc(Nc2c3ccccc3nc3c(C(=O)N4CCN(CCO)CC4)cccc23)cc1	> 100			> 100 µM	> 100	> 100 µM	> 100	> 100	> 100			> 100								
COc1ccc(Cl)cc1Nc1nc(C(F)(F)F)ccc1C(=O)N/N=C/c1ccc([N+](=O)[O-])cc1			6.7	13 µM	4.79	3.58 µM	5.42	9.27	> 100		2330 nM	7.18		2250	1390	1650	2180	1920	2140	30800
O=C(COc1ccc(/C=C2\Oc3ccccc3C2=O)cc1)Nc1nccs1	> 100	> 100	> 100	> 100 µM	> 100	> 100 µM	> 100	> 100	3.27	39000	> 100000 nM		38100	64900	371	> 100000	> 100000	54900		1520
Cc1cc2cccnc2c2ncccc12	31.9	34.4	1.84	> 100 µM	8.6	11.5 µM	7.51	5.97		2380	2270 nM		1570	315	674	3400	460	770		
O=C(CC(=O)c1ccc([N+](=O)[O-])cc1)C(=O)Nc1nccs1	> 100			> 100 µM	> 100	> 100 µM	> 100	> 100	> 100			> 100								
CC(C)N(C(=O)C12C3C4C5C3C1(C(=O)N(C(C)C)C(C)C)C5(C#N)C42)C(C)C (stereo not given)	> 100			> 100 µM	47.2	> 100 µM	> 100	> 100	51.6			39.4								
[N-]=[N+]=Nc1ccc(CCN2CCN(c3cccc(C(F)(F)F)c3)CC2)cc1I	> 100			> 100 µM	> 100	> 100 µM	> 100	> 100	> 100			45.2								
Cc1cc(N2CCN(C)CC2)nc(NCc2cc(Nc3ccnc4cc(Cl)ccc34)ccc2F)n1	3.8	> 100		> 100 µM	3.14	2.12 µM	3.45	3.7		1950	3320 nM	3.96	3510		1670	710	1880	1840	1860	
N#CCCN(CCC#N)C(=O)c1cccc(C(=O)N(CCC#N)CCC#N)c1	> 100			> 100 µM	30.3	> 100 µM	> 100	> 100	> 100			> 73.3								
CCC1=C(C)/C(=C/c2[nH]c(C(Br)Br)c(CC)c2C)N=C1C(Br)Br	> 100			> 100 µM	> 100	21 µM	> 100	> 100	55.3			52.2								
COc1c(C2=NC(C(C)C)CO2)ccc2ccccc12 (stereo not given)	> 100			> 100 µM	> 100	> 100 µM	> 100	> 100	> 100			42.9								
CCOC(=O)c1cc(/C=C/C(C)=C/C(=O)OC)oc1-c1ccccc1	> 100			> 100 µM	> 100	> 100 µM	> 100	> 100	> 100			> 100								
CC1(C)C(c2ccccc2)C12CCC1(C2=O)C(c2ccccc2)C1(C)C (stereo not given)	37			76.5 µM	42.7	33.6 µM	39	66.2	36.5			37.4								
O=S1CSCS1 (stereo not given)	> 100			> 100 µM	> 100	> 100 µM	> 100	> 100	> 100			> 100								
Cc1cc(=O)n(-c2ccccc2)c(=O)o1	> 100			> 100 µM	> 100	> 100 µM	> 100	> 100	> 100			> 100								
